The text below walks through data of US11724987B2, “Compositions and methods of treating retinal disease” (Aldeyra Therapeutics, Inc., priority 2005, dated 2023).

The conditions of series [1]: vendor value; cited from earlier work.
Another series deals with human retinal vision. Conditions: human occupational exposure, absorbed by the skin; cited from earlier work.
The test system of a further series is dark adapted rats. Description: ERG analysis of dark adaptation, dose ranging protocol. Conditions: i.p. Type of series: in vivo, rat. The method, then:
Dark adaptation is the recovery of visual sensitivity following exposure to light. Dark adaptation has multiple components including both fast (neuronal) processes and slow (photochemical) process. Regeneration of visual pigment is related to the slow photochemical process. Dark adaptation rates are measured for several reasons. Night blindness results from a failure to dark adapt (loss of visual light sensitivity). It is possible to find a safe dose for night vision by measuring drug effects on dark adapted visual light sensitivity.
An electroretinogram (ERG) is used measure dark adaptation under normal vs. drug conditions. ERG is the measurement of the electric field potential emitted by retinal neurons during their response to an experimentally defined light stimulus. More specifically, ERG measures retinal field potentials at the cornea after a flash of light (e.g., 50 ms). Field strengths are 10^2 to 10^3 microvolts, originating in retinal cells.
In a typical ERG analysis of dark adaptation experiment, every rat is dark adapted for hours to reach a consistent state of light sensitivity. […]
The ERG measurement is taken after a specific duration of post-bleach dark recovery (e.g., 30 min) determined previously by kinetic analysis (see FIGS. 6a and 6b). […]

Series [2] can be described thus: NMR analysis of RAL reactions (Schiff base condensation and ring formation). The settings on record: for tau (minutes) condense: Schiff base condensation with RAL; for tau (minutes) ring: ring formation after condensation with RAL.
The conditions of series [3]: negative control; cited from earlier work.

The structures appear in SMILES notation.

Consider `CCOC(=O)c1csc(N)n1` [Compound 1], for which the “calculated logP vendor” value in series [1] is 1.2.

As to `COC(=O)c1nc(N)sc1Cl` [Compound 2], in series [1], the “calculated logP vendor” value is reported as 1.3.

Take `Nc1nccs1` [Compound 3]: the “calculated logP vendor” value in series [1] is 0.8.

Regarding `CCOC(=O)Cc1csc(N)n1` [Compound 4], the “calculated logP vendor” value in series [1] was 1.4.

Consider `CCOC(=O)c1cccc(N)c1` [Compound 6, tricaine methane sulfonate], for which the “effect on night vision” value with human retinal vision is reported as “attenuates night vision reversibly”. Moreover, the “calculated logP vendor” value in series [1] was 1.8. For the same compound, the “ERG light sensitivity of dark adapted rats” value in the series with dark adapted rats (dose ranging, FIG. 7) is reported as “lowers light sensitivity of dark adapted rats in a dose dependent manner”. For the same compound, the “duration of effect on vision” value in the series on dark adapted rats (rats, ERG) was “decreases after 3 hours”.

As for `CC(C)(O)c1ccccc1N` [Compound 8], in series [2], the “tau (minutes) condense” value turned out to be 122 min and the “tau (minutes) ring” value turned out to be 109 min.

As for `CC(C)(O)c1nc2ccc(Cl)cc2cc1N` [Compound 9], in series [2], the “tau (minutes) condense” value amounted to 320 min and the “tau (minutes) ring” value came to 568 min.

As to `CCN(CC)CC(=O)Nc1c(C)cccc1C` [lidocaine], in series [3], the Schiff base formation entry is “does not form a Schiff base”.
